We go through 21 compounds from patent publication US20250195530A1, “POLQ INHIBITORS” (ASTRAZENECA AB, priority 2022, published 2025).

Some results are limits rather than exact numbers.

One assay deals with DLD-1 BRCA2−/− cells. The experiment in a line: Homologous recombination synthetic lethal inhibition of proliferation, DLD-1 BRCA2-/- (Cell Titre Glo 3D). It is filed as cell-based. Particulars: DLD-1 BRCA2-/- proliferation; column head only partly shown. In short, it runs like this:
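Luminescent Cell Titre Glo 3D readout, taken on day 12 for homologous-recombination-deficient DLD-1 BRCA2−/− and day 7 for the wild-type control, after compound refresh on day 6. Compounds spanned 10 μM to 0.51 nM in three-fold steps; IC50 defined as 50% reduction of average maximum signal.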
As to `CC(CCOc1ccc(-c2nc3c(OC4(C)CC4)ncnc3n2Cc2cc(F)cc(Cl)c2)c(Cl)c1)C(=O)O` (single isomer, unassigned) [Example T273, 4-(3-chloro-4-(9-(3-chloro-5-fluorobenzyl)-6-(1-methylcyclopropoxy)-9H-purin-8-yl)phenoxy)-2-methylbutanoic acid], the “POLQ PD Prolif Lumin” value stood at 6.8.

The same assay, now with this note: Homo sapiens, DLD-1, 288 h, DLD-1 BRCA2−/− cells, 12 days; read-out: POLQ PD Prolif Lumin BRCA2 −/− mean pIC50 (converted).
Consider `CC1(Oc2ncnc3c2nc(-c2ccc(OCCN4CCNC(C)(C)C4=O)cc2Cl)n3Cc2ccccc2)CC1` [Example R16, 1-(2-(4-(9-benzyl-6-(1-methylcyclopropoxy)-9H-purin-8-yl)-3-chlorophenoxy)ethyl)-3,3-dimethylpiperazin-2-one], for which the IC50 was 63.1 nM.

The same assay, now with this note: Homo sapiens, DLD-1, DLD-1 BRCA2-/- proliferation; column head only partly shown; read-out: POLQ PD Prolif Lumin (converted).
Consider `CC1(Oc2ncnc3c2nc(-c2ccc(CCCCC(=O)O)cc2Cl)n3Cc2cccc(Cl)c2)CC1` [Example T289, 5-(3-chloro-4-(9-(3-chlorobenzyl)-6-(1-methylcyclopropoxy)-9H-purin-8-yl)phenyl)pentanoic acid], for which the IC50 was 126 nM.
On the same count and under the same terms, with `Cc1ccnc(Cn2c(-c3ccc(N4CCNCC4)cc3Cl)nc3c(OC4(C)CC4)ncnc32)c1` [Example T235, 8-(2-chloro-4-(piperazin-1-yl)phenyl)-6-(1-methylcyclopropoxy)-9-((4-methylpyridin-2-yl)methyl)-9H-purine] the figure was 398 nM; with `CC(CCOc1ccc(-c2nc3c(OC4(C)CC4)ncnc3n2Cc2c(F)cccc2F)c(Cl)c1)C(=O)O` (single isomer, unassigned) [Example T263, 4-(3-chloro-4-(9-(2,6-difluorobenzyl)-6-(1-methylcyclopropoxy)-9H-purin-8-yl)phenoxy)-2-methylbutanoic acid], 794 nM.

Staying with this assay, now noted: Homo sapiens, DLD-1, DLD-1 BRCA2 −/− cells; mean; read-out: POLQ PD Prolif Lumin BRCA2 −/− mean pIC50 (converted).
Take `Cc1ccc(Cn2c(-c3ccc(CC(N)=O)cc3Cl)nc3c(OC4(C)CC4)ncnc32)cc1` [Example T100, 2-(3-chloro-4-(9-(4-methylbenzyl)-6-(1-methylcyclopropoxy)-9H-purin-8-yl)phenyl)acetamide]: the IC50 is 794 nM.
The same measure, in the same setting: to `Cc1ccnc(Cn2c(-c3ccc(C(=O)NCC(F)(F)F)cc3Cl)nc3c(OC4(C)CC4)ncnc32)c1` [Example T86, 3-chloro-4-(6-(1-methylcyclopropoxy)-9-((4-methylpyridin-2-yl)methyl)-9H-purin-8-yl)-N-(2,2,2-trifluoroethyl)benzamide] belongs 501 nM.

The assay is the same for the next values; noted with them: Homo sapiens, DLD-1, first proliferation column (c5), taken as DLD-1 BRCA2-/-; read-out: POLQ PD Prolif Lumin (converted).
Take `CC1(Oc2ncnc3c2nc(-c2ccc(OCCN4CCNCC4)cc2Cl)n3Cc2ccc(F)cn2)CC1` [Example T350, 8-(2-chloro-4-(2-(piperazin-1-yl)ethoxy)phenyl)-9-((5-fluoropyridin-2-yl)methyl)-6-(1-methylcyclopropoxy)-9H-purine]: the IC50 was 2510 nM.
The same measure, in the same setting: with `Cc1ccnc(Cn2c(-c3ccc(CCC(=O)N(C)C)cc3Cl)nc3c(OC4(C)CC4)ncnc32)c1` [Example T358, 3-(3-chloro-4-(6-(1-methylcyclopropoxy)-9-((4-methylpyridin-2-yl)methyl)-9H-purin-8-yl)phenyl)-N,N-dimethylpropanamide] the figure was 251 nM.

Staying with this assay, now noted: Homo sapiens, DLD-1, first proliferation column (c5); DLD-1 BRCA2-/-; read-out: POLQ PD Prolif Lumin (converted).
For `COCCOc1ccc(-c2nc3c(OC4(C)CC4)ncnc3n2Cc2cc(C)ccn2)c(Cl)c1` [Example T125, 8-(2-chloro-4-(2-methoxyethoxy)phenyl)-6-(1-methylcyclopropoxy)-9-((4-methylpyridin-2-yl)methyl)-9H-purine], the IC50 is 100 nM.
On the same count and under the same terms, to `Cc1ccnc(Cn2c(-c3ccc(OCC4(O)COC4)cc3Cl)nc3c(OC4(C)CC4)ncnc32)c1` [Example T200, 3-((3-chloro-4-(6-(1-methylcyclopropoxy)-9-((4-methylpyridin-2-yl)methyl)-9H-purin-8-yl)phenoxy)methyl)oxetan-3-ol] belongs 316 nM; to `Cc1ccnc(Cn2c(-c3ccc(OCCNC(N)=O)cc3Cl)nc3c(OC4(C)CC4)ncnc32)c1` [Example T133, 1-(2-(3-chloro-4-(6-(1-methylcyclopropoxy)-9-((4-methylpyridin-2-yl)methyl)-9H-purin-8-yl)phenoxy)ethyl)urea], 251 nM; to `CC1(Oc2ncnc3c2nc(-c2ccc(OCCN4C[C@@H]5C[C@H]4CN5)cc2Cl)n3Cc2cc(Cl)ccn2)CC1` [Example T487, 8-(4-(2-((1S,4S)-2,5-diazabicyclo[2.2.1]heptan-2-yl)ethoxy)-2-chlorophenyl)-9-((4-chloropyridin-2-yl)methyl)-6-(1-methylcyclopropoxy)-9H-purine], 398 nM.
Still for that read-out and setting: to `CC(CCOc1ccc(-c2nc3c(OC4(C)CC4)ncnc3n2Cc2cccc(C(C)(F)F)c2)c(Cl)c1)C(=O)O` (single isomer, unassigned) [Example T545, 4-(3-chloro-4-(9-(3-(1,1-difluoroethyl)benzyl)-6-(1-methylcyclopropoxy)-9H-purin-8-yl)phenoxy)-2-methylbutanoic acid] belongs 1000 nM; to `Cc1ccnc(Cn2c(-c3ccc(N4CCOCC4=O)cc3Cl)nc3c(OC4(C)CC4)ncnc32)c1` [Example T182, 4-(3-chloro-4-(6-(1-methylcyclopropoxy)-9-((4-methylpyridin-2-yl)methyl)-9H-purin-8-yl)phenyl)morpholin-3-one], 631 nM; to `Cc1ccnc(Cn2c(-c3ccc(C4CCNC4=O)cc3Cl)nc3c(OC4(C)CC4)ncnc32)c1` (racemic) [Example T176, 3-(3-chloro-4-(6-(1-methylcyclopropoxy)-9-((4-methylpyridin-2-yl)methyl)-9H-purin-8-yl)phenyl)pyrrolidin-2-one], 794 nM.
Same read-out and setting: to `CC1(Oc2ncnc3c2nc(-c2cccc(OCCCc4nn[nH]n4)c2Cl)n3Cc2cccc(Cl)c2)CC1` [Example T163, 8-(3-(3-(2H-tetrazol-5-yl)propoxy)-2-chlorophenyl)-9-(3-chlorobenzyl)-6-(1-methylcyclopropoxy)-9H-purine] belongs 251 nM; to `CC[C@H](CO)NC(=O)COc1ccc(-c2nc3c(OC4(C)CC4)ncnc3n2Cc2cc(C)ccn2)c(Cl)c1` [Example T518, (R)-2-(3-chloro-4-(6-(1-methylcyclopropoxy)-9-((4-methylpyridin-2-yl)methyl)-9H-purin-8-yl)phenoxy)-N-(1-hydroxybutan-2-yl)acetamide], 398 nM.

The same assay, now with this note: Homo sapiens, DLD-1, proliferation, luminescence, taken as DLD-1 BRCA2-/-; read-out: POLQ PD Prolif Lumin (converted).
Turning to `Cc1ccnc(Cn2c(-c3ccc(OCC(=O)N4CCNC(=O)C4)cc3Cl)nc3c(OC4(C)CC4)ncnc32)c1` [Example T432, 4-(2-(3-chloro-4-(6-(1-methylcyclopropoxy)-9-((4-methylpyridin-2-yl)methyl)-9H-purin-8-yl)phenoxy)acetyl)piperazin-2-one], the IC50 is greater than 6310 nM.
As to `Cc1ccnc(Cn2c(-c3ccc(C(=O)N4CC[C@@](C)(O)C4)cc3Cl)nc3c(OC4(C)CC4)ncnc32)c1` [Example T463, (R)-(3-chloro-4-(6-(1-methylcyclopropoxy)-9-((4-methylpyridin-2-yl)methyl)-9H-purin-8-yl)phenyl)(3-hydroxy-3-methylpyrrolidin-1-yl)methanone], the IC50 was 1580 nM.
The same measure, in the same setting: to `CC1(Oc2ncnc3c2nc(-c2cccc(OCCC(C)(C)C(=O)O)c2Cl)n3Cc2cccc(Cl)c2)CC1` [Example T442, 4-(2-chloro-3-(9-(3-chlorobenzyl)-6-(1-methylcyclopropoxy)-9H-purin-8-yl)phenoxy)-2,2-dimethylbutanoic acid] belongs 79.4 nM.
